“Also recorded” adds a separate entry of the source. Where two headings read alike, the source gives them in different places.
What was measured:
[1] = system: formalin-induced nociception; experiment: Formalin test, intrathecal injection (spinal cord); type: in vivo, rat; details: for nociceptive response: injected intrathecally (into the spinal cord), 10, 1 or 0.1 μg, 20 minutes prior to formalin
Protocol: (§1) The day prior to formalin testing, rats were placed in the boxes for a 15 min habituation period. The day of testing, vehicle or PAF antagonists were administered and the rats were placed in the boxes for 20 min. At this time, animals were removed from the box, and 50 μl of 1% formalin (0.4% formaldehyde) was injected subcutaneously into the plantar surface of the right hind paw with a 27-gauge needle. Immediately after injection, each animal was exposed to the open field box for 60 min and the amount of time they elevated their injected paw was recorded as described for previous Examples.
(§2) Data were expressed as means+/−SEM and p values <0.05 were considered statistically significant. Experimental groups were compared using a one-way analysis of variance (ANOVA) with repeated measures (5 min blocks of time) followed by Scheffe's post-hoc test. Independent t-tests were used to assess the effects of the PAF antagonists on the individual 5 min bins of time post-formalin as well.

[2] = system: formalin-induced nociception; experiment: Formalin test, systemic (i.p.) administration; type: in vivo, rat; details: for nociceptive response (paw elevation time), early phase: 1-10 minutes post-formalin; for nociceptive response (paw elevation time), early phase / nociceptive response (paw elevation time), late phase: 10, 1 or 0.1 mg/kg i.p. 40 minutes prior to formalin; for nociceptive response (paw elevation time), late phase: 10-60 min post-formalin, vs control-treated rats; for dose-response relationship of decrease in nociceptive behavior: three doses 10, 1, 0.1 mg/kg i.p.
Protocol: Sixty male Sprague Dawley rats weighing 300-350 g (Taconic Labs, Canada) were housed in groups of 2-3 per cage, in polycarbonate cages. Animals were maintained under standard environmental conditions (room temperature: 20-20° C.; relative humidity: 55-60%; light/dark schedule: 12/12 hr) with free access to standard laboratory chow and tap water.
BN 50730 (Biomeasure; Milford, Mass.) and BN 52021 (Biomol) were dissolved in 45% hydroxypropyl-B-cyclodextrin in distilled water (HBC). Drugs (at doses of 10, 1, or 0.1 mg/kg) or vehicle were administered intraperitoneally (i.p.) 40 minutes prior to formalin injection. The doses chosen were based on those found to produce central effects after their peripheral administration.
Experiments were carried out in accordance with The National Institutes of Health Guide for the Care and Use of Laboratory Animals. Behavioral testing was carried out in a blind manner. Nociceptive responses were examined in the formalin test described previously, (Dubisson et al., The formalin test: a quantitative study of the analgesic effects of morphine, meperidine, and brain stimulation of rats and cats. Pain 4 (1977) 161-174). In brief, animals were placed in a clear Plexiglas® formalin test box (30 cm×30 cm×30 cm), with a mirror positioned at a 45° angle below the floor allowing for unobstructed observation of the animal's paw. Following a 10-min habituation period, animals were removed from the formalin box, at which time 50 μl of 1% formalin was injected subcutaneously (s.c.) into the plantar surface of the right hind paw with a 27-gauge needle. The amount of time that each rat elevated the injected paw was recorded in five-min intervals during the […] period following formalin injection. Each animal was used once.
The 60-min formalin test produced a biphasic response consisting of an initial, rapidly decaying acute phase (early phase, 1-10 minutes after injection) followed by a slow rising and long-lived tonic phase (late phase, 15-60 minutes after injection). Typically animals elevated their paws following injection (i.e. the early phase) followed by a reduction in this behavior. Approximately 15-20 minutes after injection, the inflammatory late phase began, and animals again elevated their paws to varying degrees for the remainder of the testing period. The amount of time animals elevated their injected paw was used as a behavioral measure of pain.
Data were expressed as means+/−SEM, and p values <0.05 were considered statistically significant. Treatment groups were compared with vehicle-controls using one-way analysis of variance (ANOVA) followed by Fischer's PLSD post-hoc test to compare between groups if overall significance was found by ANOVA.

[3] = system: formalin-induced nociception; experiment: Formalin test, intra-hippocampal injection; type: in vivo, rat
Protocol: as §1
(§3) Upon completion of testing, animals were overdosed with sodium pentobarbitol and perfused with saline followed by 10% formalin solution. Brains were removed, fixed, and cut into 20-μm coronal sections throughout the cannula tract. Sections were then mounted, stained with cresyl violet, and coverslipped. […] The behavioral data for 4 rats were discarded from the study due to incorrect cannulae placement.
as §2

[4] = system: astrocyte-enriched cortical cell cultures; experiment: Effect of PAF antagonists on mc-PAF-, lyso-PAF- and AA-induced PGE2 release from astrocytes; type: cell-based, rat; details: for mc-PAF-induced PGE2 release: antagonist added 30 min before mc-PAF (1 μM), 30 min, BN 50730 0.1-100 μM, BN 52021 and CV 6209 1-50 μM; for AA-induced PGE2 release / lyso-PAF-induced PGE2 release: antagonist added 30 min prior
Protocol: (§4) All experimental protocols were approved by the Massachusetts Institute of Technology institutional review committee and meet the guidelines of the National Institutes of Health. Dissociated astrocytes were cultured from cortices of postnatal day 1-2 rat pups (as described by K. D. McCarthy, et al., Preparation of separate astroglial and oligodendroglial cell cultures from rat cerebral tissue, J. Cell Biol. 85 (1980) 890-902, with minor modifications R. K. K. Lee, et al., Metabolic glutamate receptors increase amyloid precursor protein processing in astrocytes: inhibition by cyclic AMP, J. Neurochem. 68 (1997) 1830-1835.) In brief, cells from dissociated cortices were plated onto poly-L-lysine coated 35- or 100 mm culture dishes. The initial culture media, minimal essential medium (MEM, Gibco-Life Technologies; Rockville, Md.) containing 15% horse serum (BioWhittaker; Walkersville, Md.), were aspirated 2-5 h after plating to remove unattached cells and debris, and replaced with MEM containing 5% fetal bovine serum (FBS, BioWhittaker; Walkersville, Md.). Half the medium was replaced with MEM/5% FBS twice weekly. Astrocytes were kept at 37° C. in a humidified 5% CO2/95% air incubator for 9-15 days, by which time the cultures were confluent and could be used for experiments.
(§5) Mc-PAF (Biomol; Plymouth Meeting, PA) was dissolved in methanol at a stock concentration of 10 mM. PAF-16, PAF-18, lyso-PAF, AA (Cayman Chemicals), lyso-PC and PC (Sigma) were dissolved in ethanol at stock concentrations of 10 mM. All stock solutions of lipids were stored at −80° C. and were used within 6 weeks of reconstitution. BN 52021 and CV 6209 (Biomol) were dissolved in ethanol. These PAF antagonists were stored at −20° C. in stock concentrations of 100 mM. BN 50730 (Biomeasure; Milford, Mass.) was dissolved in 45% hydroxy-B-cyclodextrin (HBC). All agents were diluted in warned serum-free medium prior to cell stimulation. Equal amounts of vehicle was added to control cells.
(§6) Cells used for all experiments were established in vitro 9-15 days prior to use in experiments and were over 95% confluent. Serum-containing media were changed every 3-4 days. Cells were serum-deprived 24 hours prior to experimental treatments. Where treatment with PAF antagonists is indicated, these compounds were added 30 minutes prior to the addition of other agents.
(§7) PGE2 levels were measured by ELISA according to manufacturer's instructions (Cayman Chemicals, Ann Arbor, Mich.). Since the amount of PGE2 in fresh medium was negligible, (J. Luo, et al., Transforming growth factor B1 regulates the expression of cyclooxygenase in cultured cortical astrocytes and neurons, J. Neurochem. 71 (1998) 526-534), direct assays of the PGE2 concentration in cell-conditioned medium was used as a measurement of PGE2 secretion by cultured cells. Results were derived from at least 3 separate experiments, assayed in duplicate or triplicate (n=6-8). The reliable detection limit of this assay (i.e. sensitivity) averaged 14+/−6 pg of PGE2.

[5] = system: formalin-induced nociception; experiment: Formalin test, injection into the lateral ventricle; type: in vivo, rat; details: for nociceptive response (paw elevation), group effect: lateral ventricle, 10, 1 or 0.1 μg, 20 min prior to formalin, ANOVA
Protocol: Animals were anesthetized (50 mg/kg sodium pentobarbitol), and unilateral guide cannulae (23 gauge) were implanted into the lateral ventricle. The guide cannulae were attached to the skull using jeweler's screws and dental acrylic. After surgery, stylets were inserted and left in place to ensure cannula patency. The formalin test was conducted 7-10 days post-surgery.
as §1, §3, §2

COX-1 = COX-1 protein level after mc-PAF stimulation (immunocytochemical and Western blot analyses); type: cell-based, rat; details: within 30 min of mc-PAF stimulation; data not shown
COX-2 = COX-2 protein level after mc-PAF stimulation (immunocytochemical and Western blot analyses); type: cell-based, rat; details: within 30 min of mc-PAF stimulation; data not shown
[6] = system: primary cortical astrocytes; experiment: Effect of COX inhibitors on mc-PAF-induced PGE2 release from primary astrocytes (Example 3); type: cell-based, rat; details: mc-PAF 0.001 to 1 μM, 30 min
Protocol: Mc-PAF (Cayman Chemical, Ann Arbor, Mich.) was dissolved in ethanol at a stock concentration of 10 mM. Indomethacin, piroxicam, NS-398 (Biomol; Plymouth Meeting, Mass.), and SC-560 (Cayman Chemical) were dissolved in 45% hydroxy-β-cyclodextrin (HBC; Sigma, St. Louis, Mo.). Cells were serum-deprived for 24 hrs prior to experimental treatments to induce quiescence. Where treatment with inhibitors is indicated, these compounds were added 30 min prior to the addition of mc-PAF.
Direct assay of the PGE2 concentration in cell-conditioned medium was used as an index of PGE2 secretion by primary astrocytes. PGE2 levels were measured by ELISA according to manufacturer's instructions (Cayman Chemicals, Ann Arbor, Mich.), as described.
Results were derived from at least 3 separate experiments, assayed in duplicate or triplicate (n=6−8). Data were expressed as means+/−SEMs. Statistical analyses were performed using ANOVAs for comparisons between groups, followed by Fischer's PLSD post hoc comparisons by means contrast. p values <0.05 were considered statistically significant.

[7] = system: astrocyte-enriched cortical cell cultures
[8] = system: astrocyte-enriched cortical cell cultures; experiment: PGE2 release (ELISA) from astrocyte-enriched cortical cell cultures exposed to PAF analogs, related lipids or AA; type: cell-based, rat
Protocol: as §4, §5, §6, §7

| SMILES | nociceptive response [1] | nociceptive response (paw elevation time), early phase [2] | nociceptive response (paw elevation time), late phase [2] | dose-response relationship of decrease in nociceptive behavior [2] | nociceptive behavior during the tonic or late phase [3] | mc-PAF-induced PGE2 release [4] | AA-induced PGE2 release [4] | lyso-PAF-induced PGE2 release [4] | nociceptive response (paw elevation), group effect [5] | further results |
| --- | --- | --- | --- | --- | --- | --- | --- | --- | --- | --- |
| C[C@@H]1C(=O)O[C@H]2[C@H](O)[C@@]34[C@H]5C[C@@H](C(C)(C)C)[C@]36[C@@H](OC(=O)[C@@H]6O)O[C@@]4(C(=O)O5)[C@@]12O [BN 52021, ginkolide B] | not | not significantly affected | significantly shorter times; also recorded: decreased nociceptive behavior | a dose-response relationship was not revealed | decreases nociceptive behavior | no significant effect; also recorded: did not significantly influence; also recorded: do not attenuate | had no effect | had no effect | significantly affected | PGE2 release, antagonist administered alone ([4]; no mc-PAF): PGE2 release was increased; comparative efficacy when administered to the brain ([5]; administered to the brain (Example 4)): more effective than BN 50730; paw elevation at 50 min post-formalin ([5]; lateral ventricle, 1 μg): decreased paw elevation; levels of paw elevation between 30 and 45 min post-formalin ([5]; lateral ventricle, 10 and 1 μg, independent t-tests): significantly attenuated; nociceptive responses compared with control-treated rats ([5]; lateral ventricle, 10 or 1 μg, Scheffe's post-hoc): significantly diminished |
| COc1ccc(NC(=S)N2CCc3c(sc4c3C(c3ccccc3Cl)=NCc3nnc(C)n3-4)C2)cc1 [BN 50730] | decreased the nociceptive response | not significantly affected | significantly shorter paw elevation times; also recorded: decreased nociceptive behavior | a dose-response relationship was not revealed | not | attenuates; also recorded: prevented; also recorded: completely abolished | significantly attenuated; also recorded: only attenuated; also recorded: attenuates | significantly attenuated; also recorded: completely abolished; also recorded: attenuates | not significantly affected | comparative efficacy when administered to the spinal cord ([1]; administered to the spinal cord (Example 4)): more effective than BN 52021; basal release of PGE2 ([4]; higher concentrations of BN 50730): reduce the basal release of PGE2 |
| CCCCCCCCCCCCCCCCOC[C@H](COP(=O)([O-])OCC[N+](C)(C)C)OC(=O)NC [mc-PAF, methylcarbamyl-PAF] | – | – | – | – | – | – | – | – | – | COX-1 protein levels (COX-1): did not increase; COX-2 protein levels (COX-2): did not increase; release of PGE2 into the conditioned media [6]: concentration-dependent increases; toxicity to cells ([7]; 1 μM mc-PAF): does not appear to have toxic effects; toxicity to cells ([7]; 10 μM mc-PAF, 24 hours): cytologic evidence of toxicity; time at which PGE2 levels returned to baseline ([8]; 1 μM mc-PAF): ≤ 12 h; time of maximum mobilization of PGE2 ([8]; 1 μM mc-PAF): 30 min; time of second, smaller peak of PGE2 release ([8]; 1 μM mc-PAF): 8 h; time to first observed increase in PGE2 release ([8]; 1 μM mc-PAF): ≤ 5 min; PGE2 release over time ([8]; 1 μM mc-PAF, 37° C., various times): time-dependent increase; PGE2 release into the conditioned media ([8]; 30 min, 37° C., various concentrations): concentration-dependent increases |

— patent publication US20050032713A1, “Platelet-activating factor antagonists as analgesic, anti-inflammatory, uterine contraction inhibiting, and anti-tumor agents” (priority 2002, published 2005)
